From EPA's ToxValDB 9.5 (doi:10.2903/j.efsa.2011.2096)
Values after ≈ are worked out from the molar mass of the structure shown.

Tests used:
Colinus virginianus = conditions: mortality
Plant = conditions: chronic/long-term; seedling emergence
Canidae = conditions: chronic; duration: 1 years; oral; Dog Other; body weight
Oryctolagus sp. = conditions: developmental; development
Daphnia magna = conditions: chronic/long-term; duration: 21 days; reproduction
Lepomis macrochirus = conditions: acute; duration: 96 hours; mortality
Anas platyrhynchos = conditions: oral, mortality
Pimephales promelas = conditions: chronic/long-term; duration: 21 days
Apis mellifera = conditions: acute; duration: 48 hours; oral; unspecified; mortality
Typhlodromus pyri = assay: LR50; higher = less toxic; conditions: not reported; mortality
Aphidius rhopalosiphi = assay: LR50; higher = less toxic; conditions: not reported; mortality

## O=c1c2cc(F)ccc2nc(-n2cncn2)n1-c1ccc(Cl)cc1Cl [Fluquinconazole]
Colinus virginianus; acute, oral, diet
  LC50: 704 mg/kg-day
Colinus virginianus; acute, oral
  LD50: > 2000 mg/kg-day
Colinus virginianus; reproduction developmental
  NOEC: 1.9 mg/kg-day
Plant
  NOEC: > 1000 g/ha
Canidae
  NOAEL: 0.2 mg/kg-day
Oryctolagus sp.
  NOAEL: 2 mg/kg-day
Daphnia magna
  NOEC: 0.648 mg/L
Lepomis macrochirus
  LC50: 1.34 µg/mL (≈ 3.56 µM)
Tagia sp.; acute, duration: 14 days, mortality
  LC50: > 1000 mg/kg
Tagia sp.; chronic/long-term, duration: 56 days
  NOEC: 0.5 mg/kg
Anas platyrhynchos; acute, unspecified
  LD50: > 2000 mg/kg-day
Anas platyrhynchos; short-term, feed
  LC50: > 210 mg/kg-day
Rattus norvegicus; acute, oral, mortality
  LD50: 112 mg/kg-day
Rattus norvegicus; chronic, mortality
  NOAEL: 0.9 mg/kg-day
Rattus norvegicus; developmental, development
  NOAEL: 2 mg/kg-day
Pimephales promelas
  NOEC: 0.154 mg/L
Apis mellifera
  LD50: > 100 µg/piece
Typhlodromus pyri
  LR50: < 149 g/ha
Aphidius rhopalosiphi
  LR50: < 149 g/ha
